The test system of test [1] is HeLa cells. The test is described as follows: Mitochondrial potential, JC-1 flow cytometry. The class given is cell-based, human. Conditions: 24 h treatment, increased further at 48 h. The procedure: The analysis of the mitochondrial potential was carried out by flow cytometric analysis. Briefly, the cells treated with the test compound were labeled with the JC-1 dye as previously described. The labeled cells were analyzed using the Coulter Cytomics FC500 (Beckman Coulter) in the FL1 and FL2 channel, respectively.

Another test concerns HeLa cell xenograft. The test is described as follows: Zebrafish xenograft model with DiI-labeled HeLa cells. It counts as in vivo, Zebrafish (Danio rerio). The settings on record: 24 h treatment, 30 or 300 nM. From the text:
Prior to microinjections into Tg zebrafish embryos (fli1: EGFP), HeLa tumor cells were labeled with the VybrantTM DiI dye (Invitrogen, ThermoFisher, Carlsbad, CA, USA). The fluorescent cells were loaded into borosilicate glass capillary needles (OD/ID: 1.00/0.75 mm, World Precision Instruments (WPI, Friedberg, Germany) and injected (200 cells), through a pneumatic picopump, into the Cuvier duct of 48 hpf embryos previously anesthetized with tricaine (0.02%, Sigma-Aldrich, Milan, Italy).
After injection, the xenograft-harboring larvae were incubated to recover at 34° C in fish water containing phenylthiourea (PTU) to inhibit the pigmentation process. After 2 h from the injection, the embryos were examined to ensure homogeneity of the xenografts. For drug treatments, only successfully injected xenograft larvae were selected, with approximately 200 HeLa fluorescent cells scattered around the caudal area.
The injected xenografts were exposed to the doses of 3d used above with DMSO as control.
For cancer cell imaging and fluorescence quantification, anesthetized embryos were distributed to 96-well plates with one embryo/well. Initially (time 0 h, pre-treatment) and after one-day post-treatment, the tumors were photographed with a Zeiss AxioObserver microscope for live-cell imaging.

For test [2], the system named is Bovine brain tubulin. As to the kind of experiment: Inhibition of tubulin polymerization (turbidimetric assembly assay). The class given is biochemical. The procedure: (§1) Bovine brain tubulin was purified as described previously. To evaluate the effects of the compounds on tubulin assembly in vitro [80], varying concentrations were preincubated with 10 μM tubulin in 0.8 M monosodium glutamate (pH 6.6) at 30 °C and the reaction mixtures then cooled to 0 °C. After addition of GTP, the mixtures were transferred to 0 °C cuvettes in Beckman Coulter (Brea, CA, USA) DU-7400/DU-7500 recording spectrophotometers equipped with electronic temperature controllers and warmed to 30 °C, and the assembly of tubulin was observed turbidimetrically. […] Inhibition of colchicine binding to tubulin was measured as described before, except that the reaction mixtures contained 0.5 μM tubulin and 5 μM each of [^3H]colchicine and test compound. Only one DEAE-cellulose filter was used per sample, and filtration was by gravity.
(§2) Bovine brain tubulin (see ref. [79] for details of purification) was used to examine effects on tubulin polymerization and colchicine binding. Briefly, in the polymerization experiments, different compound concentrations were preincubated with 10 µM tubulin for 15 min at 30 °C and cooled on ice. After GTP was added to each reaction mixture, the samples were transferred to 0 °C cuvettes in recording spectrophotometers with electronic temperature controllers. The temperature was raised to 30 °C over about 30 s, and turbidity development was followed for 20 min at 350 nm. […] In the current studies, [^3H]colchicine (from American Radiolabeled Corp., St. Louis, MO) binding was measured after 10 min at 37 °C. Reaction mixtures contained 0.5 µM tubulin and 5.0 µM each of the [^3H]colchicine and the potential inhibitor, and a single DEAE-cellulose filter was used for each sample, with gravity filtration.

Test [3] concerns Bovine brain tubulin. As to the kind of experiment: Inhibition of [3H]colchicine binding to tubulin. Conditions: tubulin 0.5 µM, [3H]colchicine 5 µM, tested compound 5 µM. The procedure: as §1, §2
Another test relates to MDA-MB-231. The test is described as follows: In vitro cell growth inhibition, resazurin viability assay. It counts as cell-based, human. The procedure:
(§3) All the cell lines used in this paper were of human origin and purchased from the American Type Culture Collection (ATCC, Manassas, VA, USA). Colon adenocarcinoma (HT-29), non-small cell lung carcinoma (A549), cervix carcinoma (HeLa) and breast adenocarcinoma (MDA-MB-231) cells were grown in RPMI (HT29) or DMEM (A549, HeLa, MDA-MB-231) medium (Gibco, Milano, Italy). Both media were supplemented with 115 units/mL of penicillin G (Gibco, Milano, Italy), 115 μg/mL of streptomycin (Invitrogen, Milano, Italy) and 10% fetal bovine serum (Invitrogen, Milano, Italy). All cell lines were grown at 37 °C in a humidified 5% CO2 atmosphere. The cells were grown in 2 mL of complete medium.
(§4) Stock solutions were prepared for each compound by dissolving in DMSO at the final concentration of 10 mM.
(§5) The cells were seeded in 96-well plates at the appropriate density for each cell line. The respective cell line densities used for the antiproliferative assay were HeLa and HT29 5000 cells/well, A549 4000 cells/well and MDA-MB-231 7000 cells/well. The total volume of medium was 100 µL. After 24 h, the cells were treated by performing serial 5-fold dilutions of the tested compounds starting from a concentration of 10 μM. All experimental conditions were tested in triplicate for statistical analysis. After 72 h of incubation, 10 μL of 100 μg/mL resazurin solution was added to each well and the plate was re-incubated for 3–4 h. The fluorescence of the wells in each plate was monitored using a Spark 10M spectrophotometer (Tecan Group Ltd., Mannedorf, Switzerland) with a 535 nm excitation wavelength and a 600 nm emission wavelength.
Background: Resazurin is reduced to fluorescent resorufin, in cell work by metabolically active cells.

Another test concerns A549. The description is as above. It counts as cell-based, human. The procedure: as §3, §4, §5
In the next test the test system is HeLa. The description is as above. The class given is cell-based, human. Here is the method:
as §3, §4, §5

For a further test, the system named is HT29. Described as above. The class given is cell-based, human. Here is the method: as §3, §4, §5
Test [4] deals with HeLa cells. As to the kind of experiment: Cell cycle analysis by flow cytometry (PI). It counts as cell-based, human. Here is the method:
For these experiments, HeLa cells were used, which were seeded in 6-well plates at a concentration of 5 × 10^5/well in a final volume of 2 mL culture medium. The cells were then treated with the test compounds for 24 h at the indicated concentrations. After this incubation period, the cells were detached with trypsin-EDTA and harvested by centrifugation. The pellet thus obtained was fixed in 70% ice-cold ethanol.
After this incubation period, the cells were detached with trypsin-EDTA and harvested by centrifugation. The pellet thus obtained was fixed in 70% ice-cold ethanol for at least 1 h. The cells thus fixed were treated with a 0.1% v/v solution of Triton_X-100 in phosphate buffered saline (PBS) containing RNAseA and propidium iodide (PI) at the final concentration of 0.02 mg/mL. The cells were incubated at room temperature for 30 min and then analyzed on a Cytomic FC500 flow cytometer (Beckman Coulter) in the FL3 channel. DNA histograms were analyzed using MultiCycle for Windows (Phoenix Flow Systems, San Diego, CA, USA).
(In general: In flow cytometry, cells or beads pass a laser one at a time.)

From article PMC9415608, “Design, Synthesis and Biological Investigation of 2-Anilino Triazolopyrimidines as Tubulin Polymerization Inhibitors with Anticancer Activities” (Pharmaceuticals, 2022) come the findings set out here.

SMILES strings stand for the structures.

As usually defined, the IC50 is the point on the concentration scale where inhibition reaches its midpoint. Regarding `COc1cc(-c2ccnc3nc(Nc4ccc(C)cc4)nn23)cc(OC)c1OC` [Compound 3d, N-(p-Tolyl)-7-(3,4,5-trimethoxyphenyl)-[1,2,4]triazolo[1,5-a]pyrimidin-2-amine], the “mitochondrial depolarization (JC-1 monomers)” value in the test on HeLa cells [1] is recorded as “significant increase in the percentage of monomers”. Besides, the “fluorescence intensity of tumor xenografts” value in the test with HeLa cell xenograft is listed as “decreased in a dose-dependent manner, reaching statistical significance at 300 nM”. The “number of disseminated cancer cells” value in the test with HeLa cell xenograft was “significantly reduced the number of disseminated cancer cells”. Besides, in the test on Bovine brain tubulin [2], the “fold more active than CA-4 as inhibitor of tubulin assembly” value turned out to be 2 fold. Further, in the test on Bovine brain tubulin [2], the “fold more potent than 2a as inhibitor of tubulin assembly” value is recorded as roughly 2 fold. In addition, the IC50 was determined as 450 ± 100 nM with Bovine brain tubulin [2] (tubulin at 10 μM, 20 min incubation, read-out: Tubulin Assembly IC50 ± SD); 0.43 ± 0.11 µM with MDA-MB-231 (Homo sapiens, MDA-MB-231, 72 h, resazurin, mean ± SE); 0.043 ± 0.024 µM with A549 (Homo sapiens, A549, 72 h, resazurin, mean ± SE); 0.038 ± 0.009 µM in the test with HeLa (Homo sapiens, 72 h, resazurin, mean ± SE); 0.03 ± 0.003 µM with HT29 (Homo sapiens, HT-29, 72 h, resazurin, mean ± SE). For the same compound, in the test with Bovine brain tubulin [3], the “Colchicine Binding % Inhibition ± SD” value is 72 ± 5%. The figures for the “fold less potent than CA-4” value in the test with MDA-MB-231 (MDA-MB-231 cells) and with HeLa (HeLa cells) were 100 fold and 10 fold, respectively. In addition, in the test with A549 (A549 cells), the “fold more potent than CA-4” value was 4 fold. Also, the “fold greater activity than CA-4” value in the test on HT29 (HT-29 cells) worked out at 100 fold. Also, the “concentration at which increase in G2/M cells was evident” value with HeLa cells [4] (24 h) stood at 25 nM. Also, the “effect on cell cycle (G2/M)” value in the test with HeLa cells [4] (24 h, 10, 25 or 50 nM) was “significant G2/M arrest in a concentration-dependent manner”.
